Test results taken from BigSolDB 2.1.

CCOc1nc2cccc(C(=O)OC(C)OC(=O)OC3CCCCC3)c2n1Cc1ccc(-c2ccccc2-c2nn[nH]n2)cc1 (stereo not given)
solubility (mole fraction)
Conditions	293.15 K	298.15 K	303.15 K	308.15 K	313.15 K	323.15 K	333.15 K	343.15 K
in acetone	0.00673	0.00783	0.00946	0.0111	0.0133	–	–	–
in acetonitrile	0.000582	–	0.000912	–	0.0016	0.00263	0.00441	–
in ethanol	–	–	0.00144	–	0.00235	0.00465	0.00824	0.0118
